Several values for one entry are separate records, joined by “and”; a condition that tells them apart may be missing. Identical values can stand only once. Toxic doses and inconclusive results are not listed. How the source made its calls: active means survival T/C of 150% or more; inactive means T/C below 125% in these data.
System: BDF1 mice, B16 melanoma ip, median survival T/C
Experiment: NCI In Vivo Anticancer Drug Screen. Data for tumor model B16 Melanoma (intraperitoneal) in B6D2F1 (BDF1) mice
Conditions: endpoint: median survival time, higher = longer survival
Outline: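 In this screen, activity was judged from survival or tumor size in treated versus vehicle-treated tumor-bearing mice, reported as T/C.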

[1] = dose: 100.0 mg/kg/injection, schedule: Q01DX009 (ip), vehicle: saline with Tween-80
[2] = dose: 200.0 mg/kg/injection, schedule: Q01DX009 (ip), vehicle: saline with Tween-80

Measured: T/C

CN(C)c1nc(N(C)C)nc(N(C)C)n1
inactive: dose: 10.0 mg/kg/injection, schedule: Q01DX009 (ip), vehicle: Klucel (hydroxypropylcellulose) (HPC) 108 % of control | dose: 12.5 mg/kg/injection, schedule: Q01DX009 (ip), vehicle: saline with Tween-80 99 % of control and 106 % of control and 107 % of control | dose: 20.0 mg/kg/injection, schedule: Q01DX009 (ip), vehicle: Klucel (hydroxypropylcellulose) (HPC) 94 % of control | dose: 20.0 mg/kg/injection, schedule: Q01DX009 (ip), vehicle: saline with Tween-80 88 % of control and 99 % of control | dose: 20.0 mg/kg/injection, schedule: Q02DX009 (ip), vehicle: saline with Tween-80 103 % of control and 107 % of control | dose: 25.0 mg/kg/injection, schedule: Q02DX009 (ip), vehicle: Klucel (hydroxypropylcellulose) (HPC) 97 % of control | dose: 40.0 mg/kg/injection, schedule: Q01DX009 (ip), vehicle: Klucel (hydroxypropylcellulose) (HPC) 100 % of control | dose: 40.0 mg/kg/injection, schedule: Q01DX009 (ip), vehicle: saline with Tween-80 93 % of control and 97 % of control | dose: 40.0 mg/kg/injection, schedule: Q02DX009 (ip), vehicle: saline with Tween-80 103 % of control and 112 % of control | dose: 50.0 mg/kg/injection, schedule: Q02DX009 (ip), vehicle: Klucel (hydroxypropylcellulose) (HPC) 96 % of control | dose: 80.0 mg/kg/injection, schedule: Q01DX009 (ip), vehicle: Klucel (hydroxypropylcellulose) (HPC) 100 % of control | dose: 80.0 mg/kg/injection, schedule: Q01DX009 (ip), vehicle: saline with Tween-80 100 % of control and 102 % of control | dose: 80.0 mg/kg/injection, schedule: Q02DX009 (ip), vehicle: saline with Tween-80 104 % of control and 109 % of control | dose: 100.0 mg/kg/injection, schedule: Q02DX009 (ip), vehicle: Klucel (hydroxypropylcellulose) (HPC) 101 % of control | dose: 160.0 mg/kg/injection, schedule: Q01DX009 (ip), vehicle: Klucel (hydroxypropylcellulose) (HPC) 91 % of control | dose: 160.0 mg/kg/injection, schedule: Q01DX009 (ip), vehicle: saline with Tween-80 111 % of control | dose: 160.0 mg/kg/injection, schedule: Q02DX009 (ip), vehicle: saline with Tween-80 107 % of control and 115 % of control | dose: 200.0 mg/kg/injection, schedule: Q02DX009 (ip), vehicle: Klucel (hydroxypropylcellulose) (HPC) 124 % of control

O=C(Nc1ccccc1Cl)c1ccc([N+](=O)[O-])cc1
inactive: [1] 100 % of control | [2] 105 % of control | dose: 400.0 mg/kg/injection, schedule: Q01DX009 (ip), vehicle: saline with Tween-80 97 % of control

COc1cc(C(=O)O)c(Br)cc1C
inactive: dose: 100.0 mg/kg/injection, schedule: Q04DX003 (ip), vehicle: Klucel (hydroxypropylcellulose) (HPC) 105 % of control | dose: 200.0 mg/kg/injection, schedule: Q04DX003 (ip), vehicle: Klucel (hydroxypropylcellulose) (HPC) 97 % of control

Nc1ccc(N=Nc2ccccc2)c(N)c1
inactive: dose: 25.0 mg/kg/injection, schedule: Q01DX009 (ip), vehicle: saline with Tween-80 106 % of control | dose: 50.0 mg/kg/injection, schedule: Q01DX009 (ip), vehicle: saline with Tween-80 93 % of control and 101 % of control | dose: 100.0 mg/kg/injection, schedule: Q01DX009 (ip), vehicle: Klucel (hydroxypropylcellulose) (HPC) 101 % of control | [1] 95 % of control and 101 % of control | dose: 200.0 mg/kg/injection, schedule: Q01DX009 (ip), vehicle: Klucel (hydroxypropylcellulose) (HPC) 99 % of control | [2] 87 % of control and 90 % of control

COC(CBr)c1ccccc1 (stereo not given)
inactive: dose: 3.12 mg/kg/injection, schedule: Q01DX009 (ip), vehicle: Klucel (hydroxypropylcellulose) (HPC) 102 % of control | dose: 6.25 mg/kg/injection, schedule: Q01DX009 (ip), vehicle: Klucel (hydroxypropylcellulose) (HPC) 104 % of control | dose: 10.0 mg/kg/injection, schedule: Q04DX003 (ip), vehicle: Klucel (hydroxypropylcellulose) (HPC) 97 % of control | dose: 12.5 mg/kg/injection, schedule: Q01DX009 (ip), vehicle: Klucel (hydroxypropylcellulose) (HPC) 92 % of control | dose: 20.0 mg/kg/injection, schedule: Q04DX003 (ip), vehicle: Klucel (hydroxypropylcellulose) (HPC) 87 % of control | dose: 40.0 mg/kg/injection, schedule: Q04DX003 (ip), vehicle: Klucel (hydroxypropylcellulose) (HPC) 87 % of control

CCN(CC)CCOC(=O)C(c1ccccc1)C1CCCCC1 (stereo not given)
inactive: dose: 6.25 mg/kg/injection, schedule: Q01DX009 (ip), vehicle: saline 99 % of control | dose: 12.5 mg/kg/injection, schedule: Q01DX009 (ip), vehicle: saline 108 % of control | dose: 25.0 mg/kg/injection, schedule: Q01DX009 (ip), vehicle: saline 108 % of control | dose: 50.0 mg/kg/injection, schedule: Q01DX009 (ip), vehicle: saline 118 % of control | dose: 100.0 mg/kg/injection, schedule: Q01DX009 (ip), vehicle: saline 110 % of control
